Laboratory results as given in US5086074A, “1-aminomethyl-1,2,3,4-tetrahydronaphthalenes” (Abbott Laboratories, priority 1990, dated 1992).
Structures can show the parent of a compound that is named as a salt. Where two headings read alike, the source gives them in different places.

Assays:
alpha-2-receptor = experiment: Radioligand binding, alpha-2 adrenoceptor, rat cerebral cortices, [3H]-rauwolscine; conditions: ratio Ki alpha-1/Ki alpha-2
Description: (§1) The compounds were assessed for alpha-adrenergic receptor subtype selectivity by use of radioligand binding techniques as described previously (DeBernardis et.al. J. Med. Chem. 28, 1398 (1985)).

alpha-1-receptor = target: T1, alpha-1-receptor (Rattus norvegicus, UniProt P15823); experiment: Radioligand binding, alpha-1 adrenoceptor, rat liver homogenates, [3H]-prazosin
T1 construct: rat liver homogenates; from tissue; host or cells: rat liver homogenate
T1 sequence (P15823 1-515): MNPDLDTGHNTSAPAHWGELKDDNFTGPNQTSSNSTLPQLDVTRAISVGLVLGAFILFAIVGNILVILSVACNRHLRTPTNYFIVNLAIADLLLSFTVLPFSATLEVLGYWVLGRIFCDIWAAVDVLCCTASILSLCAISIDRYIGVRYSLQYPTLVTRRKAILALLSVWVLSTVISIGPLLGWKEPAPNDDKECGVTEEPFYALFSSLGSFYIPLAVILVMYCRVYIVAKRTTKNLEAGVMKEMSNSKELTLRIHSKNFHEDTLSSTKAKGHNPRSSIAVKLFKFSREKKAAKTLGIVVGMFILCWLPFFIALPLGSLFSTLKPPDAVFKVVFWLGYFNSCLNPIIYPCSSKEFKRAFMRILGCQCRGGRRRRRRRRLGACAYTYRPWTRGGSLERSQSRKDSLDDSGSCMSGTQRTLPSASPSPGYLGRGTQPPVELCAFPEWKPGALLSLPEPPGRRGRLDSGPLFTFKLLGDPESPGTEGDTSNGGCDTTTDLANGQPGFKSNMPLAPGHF
Description: as §1

[1] = rat liver homogenates, [3H]-prazosin, read-out: Ki alpha-1

Compound | Ki (alpha-1-receptor; [1]) [nM] | other results
5-Methoxy-1-(3-phenylpyrrolidino-1-methyl) indane hydrochloride [Example 152] | – | alpha-2 - Selectivity Ki alpha-1/Ki alpha-2 (alpha-2-receptor): 11
COc1ccc2c(c1)CCCC2CN(C)CCc1cccs1 (stereo not drawn) [Example 5, ((N-Methylamino)methyl-N-(2-(2-thienyl)ethyl)) 6-methoxy tetralin methanesulfonate] | 580 | –
COc1ccc2c(c1)CCCC2CN(C)CCc1cccc(F)c1 (stereo not drawn) [Example 6b, 1-((N-methylamino)methyl-N-(2-(m-fluorophenyl)ethyl))-6-methoxy tetralin hydrochloride] | 1180 | –
COc1ccc2c(c1)CCCC2CN(C)CCc1ccsc1 (stereo not drawn) [Example 6d, 1-((N-methylamino)methyl-N-(2-(3-thienyl)ethyl))-6-methoxy tetralin hydrochloride] | 500 | –
COc1ccc2c(c1)CCCC2CN(C)CCC1CCCC1 (stereo not drawn) [Example 6f, 1-((N methylamino)methyl -N-(2-(cyclopentyl)ethyl))-6-methoxy tetralin hydrochloride] | 2160 | –
COc1ccc2c(c1)CCCC2CN(C)CCC1CCCS1 (stereo not drawn) [Example 6h, 1-((N-methylamino)methyl-N-(2-(2-tetrahydrothienyl)ethyl)) 6-methoxy tetralin hydrochloride] | 1510 | alpha-2 - Selectivity Ki alpha-1/Ki alpha-2 (alpha-2-receptor): 430
CN(CCc1cccs1)CC1CCCc2cc(O)ccc21 (stereo not drawn) [Example 7, 1-((N-Methylamino)methyl N-(2-(2-thienyl)ethyl)) 6-hydroxy tetralin hydrochloride] | 565 | –
COc1ccc2c(c1)CCCC2CN(C)CCc1cccn1C (stereo not drawn) [Example 12, 1-((N-Methylamino)methyl-N-(2-(N-methyl-2-pyrrolyl)ethyl))-6-methoxy tetralin fumarate] | 1210 | –
CN(CCc1cccs1)CC1CCCc2ccccc21 (stereo not drawn) [Example 22, 1-((N-Methylamino)methyl-N-(2-(2-thienyl)ethyl)) tetralin hydrochloride] | 695 | –
CN(CCc1cccs1)CC1CCCc2c1ccc1c2OCO1 (stereo not drawn) [Example 23, 1-((N-Methylamino)methyl-N-(2-(2-thienyl)ethyl))-5,6-methylenedioxy tetralin hydrochloride] | 445 | –
COc1cc2c(c(OC)c1)C(CN(C)CCc1cccs1)CCC2 (stereo not drawn) [Example 26, 1-((N Methylamino)methyl-N-(2-(2-thienyl)ethyl))6,8-dimethoxy tetralin hydrochloride] | 175 | –
COc1ccc2c(c1)C(CN(C)CCc1cccs1)CCC2 (stereo not drawn) [Example 27, 1-((N-Methylamino)methyl-N (2-(2-thienyl)ethyl))7-methoxy tetralin hydrochloride] | 525 | –
CN(CCc1cccs1)CC1CCCc2c1ccc1c2OCCO1 (stereo not drawn) [Example 30, 1-((N Methylamino)methyl-N-(2-(2-thienyl)ethyl))-5,6-ethylenedioxy tetralin hydrochloride] | 470 | –
Cc1cc(O)c(O)c2c1C(CN(C)CCc1cccc(F)c1)CCC2 (stereo not drawn) [Example 34, 1-((N-Methylamino)methyl-N (2-(m-fluorophenyl)ethyl))-5,6-dihydroxy-8-methyl tetralin hydrobromide] | 330 | –
COc1ccc2c(c1)CCC2CN(C)CCc1cccs1 (stereo not drawn) [Example 37, 1-((N-Methylamino)methyl-N-(2-(2-thienyl)ethyl))-5-methoxy indane hydrochloride] | 645 | –
CCN(CCc1cccs1)CC1CCCc2cc(OC)ccc21 (stereo not drawn) [Example 41, 1-((N Ethylamino)methyl-N (2-(2-thienyl)ethyl))-6methoxy tetralin hydrochloride] | 950 | –
CCN(CCc1cccc(F)c1)CC1CCCc2cc(OC)ccc21 (stereo not drawn) [Example 42, 1-((N Ethylamino)methyl-N-(2-(m-fluorophenyl)ethyl))-6-methoxy tetralin hydrochloride] | 1050 | –
CCN(CCc1ccco1)CC1CCCc2cc(OC)ccc21 (stereo not drawn) [Example 43, 1-((N-Ethylamino)methyl-N-(2-(2-furyl)ethyl))-6-methoxy tetralin hydrochloride] | 1400 | –
CCN(CCc1ccsc1)CC1CCCc2cc(OC)ccc21 (stereo not drawn) [Example 44, 1-((N-Ethylamino)methyl-N-(2-(3-thienyl)ethyl))-6-methoxy tetralin hydrochloride] | 590 | –
CCCN(CCc1cccs1)CC1CCCc2cc(OC)ccc21 (stereo not drawn) [Example 58, 1-((N-Propylamino)methyl)-N-(2-(2-thienyl)ethyl))-6-methoxy tetralin hydrochloride] | 1830 | –
COc1ccc2c(c1)CCCC2CN(C)CCc1cccc(N)c1 (stereo not drawn) [Example 67, 1-((N-Methylamino)methyl-N-(2-(m-aminophenyl)ethyl))-6-methoxy tetralin dihydrochloride] | 1170 | –

Compound | Ki (alpha-1-receptor; [1]) [nM] | other results
CN(CCc1cccc(N)c1)CC1CCCc2cc(O)ccc21 (stereo not drawn) [Example 68, 1-((N-Methylamino)methyl N-(2-(m-aminophenyl)ethyl))-6-hydroxy tetralin dihydrobromide] | 1170 | –
CN(CCc1cccc(F)c1)CC1CCCc2ccccc21 (stereo not drawn) [Example 70, 1-((N Methylamino)methyl-N-(2-(mfluorophenyl)ethyl))-tetralin hydrochloride] | 525 | –
CN(CCc1cccc(O)c1)CC1CCCc2cc(O)ccc21 (stereo not drawn) [Example 82, 1-((N-Methylamino)methyl-N-(2-(m-hydroxyphenyl)ethyl))-6-hydroxy tetralin hydrochloride] | 495 | –
COc1ccc2c(c1)CCCC2CN(C)CCc1cccc(O)c1 (stereo not drawn) [Example 83, 1-((N-Methylamino)methyl-N-(2-(m-hydroxyphenyl)ethyl))-6-methoxy tetralin hydrochloride] | 955 | –
CN(CCc1cccc(F)c1)CC1CCCc2c1ccc(O)c2O (stereo not drawn) [Example 85, 1-((N-Methylamino)methyl-N-(2-(m-fluorophenyl)ethyl))-5,6-dihydroxy tetralin hydrochloride] | 260 | –
COc1ccc2c(c1OC)CCCC2CN(C)CCc1cccs1 (stereo not drawn) [Example 86, 1-((N-Methylamino)methyl-N-(2-(2-thienyl)ethyl))-5,6-dimethoxy tetralin hydrochloride] | 495 | –
CN(CCc1cccs1)CC1CCCc2c1ccc(O)c2O (stereo not drawn) [Example 87, 1-((N-Methylamino)methyl-N-(2-(2-thienyl)ethyl))-5,6-dihydroxy tetralin hydrochloride] | 444 | –
CN(CCc1ccccc1)CC1CCCc2ccccc21 (stereo not drawn) [Example 88, 1-((N-Methylamino)methyl-N-(2-phenethyl))-tetralin hydrochloride] | 315 | –
CN(CCc1ccccc1)CC1CCCc2cc(N)ccc21 (stereo not drawn) [Example 114, 1-((N-Methylaminomethyl-N-(2-phenylethyl))-6-aminotetralindihydrochloride] | 725 | –
CN(CCc1cccs1)CC1CCCc2c1ccc(O)c2I (stereo not drawn) [Example 115, 1-((N-Methylamino)methyl-N-(2-(2-thienyl)ethyl))-5-iodo-6-hydroxy tetralin hydrochloride] | 530 | –
COc1cc2c(cc1C)C(CN(C)CCc1ccco1)CCC2 (stereo not drawn) [Example 128, 1-((N-Methylamino)methyl-N-(2-(2-furyl)ethyl))6-methoxy-7-methyl tetralin hydrochloride] | 855 | –
COc1cc2c(cc1F)C(CN(C)CCc1ccco1)CCC2 (stereo not drawn) [Example 141, 1-((N-methylamino)methyl-N-(2-(2-furyl)ethyl))-6-methoxy-7-fluoro tetralin methanesulfonate] | 880 | –
c1csc(C2CCN(CC3CCCc4c3ccc3c4OCO3)C2)c1 (stereo not drawn) [Example 144, 5,6-Methylenedioxy-1-(3-(2-thienyl)pyrrolidino-1-methyl) tetralin methanesulfonate] | 245 | –
Fc1ccc2c(c1)CCCC2CN1CCC(c2cccs2)C1 (stereo not drawn) [Example 149, 6-Fluoro-1-(3-(2-thienyl)pyrrolidino-1-methyl) tetralin methanesulfonate] | – | alpha-2 - Selectivity Ki alpha-1/Ki alpha-2 (alpha-2-receptor): 45
CCN(CCc1cccs1)CC1CCCc2c1ccc1c2OCO1 (stereo not drawn) [Example 164, 1-(N Ethylamino)methyl-N-(2-(2-thienyl)ethyl))-5,6-methylenedioxy tetralin hydrochloride] | 954 | –
CCN(CCc1cccc(F)c1)CC1CCCc2c1ccc1c2OCO1 (stereo not drawn) [Example 165, 1-((N-Ethylamino)methyl-N-(2-m-fluorophenethyl))-5,6-methylenedioxy tetralin hydrochloride] | 462 | –
CN(CCc1cccc(F)c1)CC1CCCc2c1ccc1c2OCO1 (stereo not drawn) [Example 166, 1-((N-Methylamino)methyl-N (2-m-fluorophenethyl))-5,6-methylenedioxy tetralin methanesulfonate] | 603 | –
CCN(CCc1cccs1)CC1CCCc2c1ccc1c2OCCO1 (stereo not drawn) [Example 168, 1-((N Ethylamino)methyl-N-(2-(2-thienyl)ethyl))-5,6-ethylenedioxy tetralin hydrochloride] | 823 | –
Fc1ccccc1C1CCN(CC2CCCc3c2ccc2c3OCO2)C1 (stereo not drawn) [Example 176a, 5,6-Methylenedioxy-1-(3-(o-fluorophenyl)pyrrolidino-1-methyl) tetralin methanesulfonate] | 79 | –
COC(=O)[C@H]1[C@H]2C[C@H]3c4[nH]c5ccccc5c4CCN3C[C@H]2CC[C@@H]1O [Rauwolscine, reference compound] | – | Ki (alpha-1-receptor): 392 nM
